Reference: patent US11485891B2, “Products and methods for the treatment of mixtures of water and hydrophobic liquids” (B.C. RESEARCH INC., priority 2018, dated 2022)
Blank lines part the entries; values can stand above or below the compound they belong to.

How the values were obtained:
[1] = Experimental: The herder L-phenylalanine, N-(1-oxotetradecyl)-, sodium salt and the gellant oleic-β-alaninamide were assessed for biodegradability in using OECD 301F guideline, manometric respirometer test.
[2] = Herding (slick retraction) of oil already spread on water; conditions: aqueous solution of herder applied to spread oil; images at 1, 5, 10 and 20 minutes
From the text: When an oil (e.g., dilbit) is applied to water in a pan, the oil spreads to cover the surface of the water. Application of FA-AA as a salt (e.g., Li, Na or K salts) dissolved in water results in contraction of the oil layer. The pooled oil has reduced surface area and greater slick thickness. This is illustrated in FIG. 9A-E where a solution of the salt of a FA-AA is applied to an aliquot of oil which has been allowed to spread in a pan (FIG. 9A). Application of the aqueous herder solution results in contraction of the slick over time. Images taken at 1, 5, 10 and 20 minutes are shown in FIGS. 9B, 9C, 9D and 9E respectively.
Alternatively, an oil was applied to water in a pan and allowed to spread. A herder (e.g. L-phenylalanine, N-(1-oxotetradecyl)-, sodium salt) was applied to the water to retract the slick (i.e. decrease surface area while increasing the thickness/depth of the oil layer). Overhead photography was used to capture the herding process. The images were processed to determine the area of the slick and allow for calculation of the slick thickness (FIG. 9).

[3] = Reduction of oil adhesion on glass beads conditioned with aqueous herder solution; conditions: beads conditioned 1 hour, in oil 1 hour
Experimental: Glass bead were used as a model substrate. The beads were weighed and transferred into a pre-weighed 60 mL plastic syringe. The beads were immersed in an aqueous solution of herder, C14-L-Phe-COONa, for 1 hour. An oil layer of conventional crude oil was added to the surface of the herder solution above the glass beads. The oil was lowered hydrostatically to immerse the beads in oil for 1 hour after which the oil was raised hydrostatically above the level of the beads. The water above the oil and beads were both removed. The mass of the oil retained on the glass beads was calculated as the difference between the mass of the oil-coated beads and the initial mass of the beads.

[4] = Herder activity: slick thickness of oil added to water pre-dosed with herder
Experimental: The herder formulation was pre-dosed into 1 L of water in a flat glass pan under which was a 1×1 cm grid. A known volume of oil was applied to the pre-dosed water. A digital photo of the oil slick was recorded. The image was processed using ImageJ in order to calculate the area of the slick. Since volume and area are known, it is possible to calculate the thickness of the slick as a function of herder dosing. Compounds that maximize the thickness of the slick are considered better oil-herders.
Stearoyl alanine was dissolved in isopropyl alcohol. An aliquot of this solution was added to 1 L of water in a pan. The final dosage of stearoyl alanine was 0.77 mg in 1 L of water. Dilbit (2.27 g) was added. An overhead digital photo was taken of the oil after 10 minutes. The photo was analyzed to determine the area of the oil which could be used to calculate the thickness of the oil layer. The oil slick was determined to be 2.9 mm thick.
Silsurf, (trademark) a commercial herder added to 1 L of water in a glass pan for a final dosing of 1 mg. Dilbit (1.61 g) was added to the water. An overhead digital photo was taken of the oil after 10 minutes. The photo was analyzed to determine the area of the oil which could be used to calculate the thickness of the oil layer. The oil slick was determined to be 2.0 mm thick.

[5] = Oil thickening, aqueous suspension delivery to dilbit-water mixture
Experimental: Gellants which presented as fine powdery solids were suspended in water (4-5 mL). The suspension was sonicated to reduce the particle size if necessary. The suspension was added to a mixture of 1 mL oil to 4 mL water in a 20 mL vial. The vial was capped and the mixture agitated. Thickening of the oil, likely due to the formation of an emulsion, could be observed within 15 minutes.
Four portions of prior art compound dodecanoyl-L-alanine of differing masses were weighed out and each suspended in 1 mL of water. These four suspensions were added to four separate 20 mL vials of 1:4 mL dilbit and water. […] Oil thickening was evaluated qualitatively.
This experiment was repeated with dodecanoyl-β-alaninamide. Four portions of dodecanoyl-β-alaninamide of differing masses were weighed out and each suspended in 7 mL of water. These four suspensions were added to four separate 20 mL vials of 1:4 mL dilbit and water. […] Oil thickening was evaluated qualitatively.

[6] = Gelling ability, solution phase (co-solvent) delivery to dilbit-water mixture
Experimental: PSOGs were screened against dilbit, diesel and sunflower. The dilbit used in the Examples herein was prepared by dissolving bitumen in naphtha in a 65:35 ratio of bitumen to naphtha. A typical screening method utilized a 1:4 ratio of hydrophobic liquid to water (i.e., 1 mL oil product to 4 mL water) in a 20 mL vial. The gellant (22.5 mg) was dissolved in a carrier solvent, which was typically methanol, ethanol or isopropanol. Heat was applied to dissolve the solid if necessary. The gellant solution was transferred to the oil-water mixture and the vial was capped. Agitation was applied and the mixture allowed to settle. Gel formation typically presented as the formation of an oil pellet or a thickening of the oil phase.
Four portions of the prior art compound dodecanoyl-L-alanine of differing masses were weighed out and each dissolved in 1 mL of isopropyl alcohol. These four solutions were added to four separate 20 mL vials of 1:4 mL dilbit and water. […] Gel formation was evaluated qualitatively.
This procedure was repeated with dodecanoyl-β-alaninamide. Four portions of dodecanoyl-β-alaninamide of differing masses were weighed out and each dissolved in 1 mL of isopropyl alcohol. These four solutions were added to four separate 20 mL vials containing 1 mL dilbit and 4 mL water. […] Gel formation was evaluated qualitatively.

[7] = Bhattacharya et al., Chemical Communications p. 185, 2001; cited from earlier work
[8] = Gelling activity without organic solvent (active suspension in water); conditions: 25 mg in 5 mL water, heated and cooled; no organic solvent
Experimental: The gellant oleic-β-alaninamide (25 mg) was suspended 5 mL of water which was dyed pink for visualization purposes. The mixture was heated to dissolve the gellant. Upon cooling, the gellant precipitated as a cotton-like mass which retains the water. […] Upon the addition of diesel, which has been dyed blue, the hydrophobic phase entered the gellant mass upon contact and displaced the dyed water (FIGS. 8B and 8C) to produce the gelled diesel.

[9] = Gelling activity using mixed organic solvent-water active suspension; conditions: 25 mg in 5 mL 2:3 1,4-butanediol and water, heated and cooled; added to 1:4 oil and seawater, gentle agitation
Experimental: The gellant oleic-p-alaninamide (25 mg) was suspended in 5 mL of a mixed solvent system composed of 2:3 1,4-butanediol and water. The mixture was heated to dissolve the solids. Upon cooling, the gellant precipitates as a cotton-like mass.

Biodegradability classification [1]: readily biodegradable
Compound: CCCCCCCCCCCCCC(=O)N[C@@H](Cc1ccccc1)C(=O)[O-].[Na+] [L-phenylalanine, N-(1-oxotetradecyl)-, sodium salt]
Herding of dilbit (FIG. 9) [2]: slick retraction
Average mass of conventional crude retained ([3]; herder concentration 0.086 g/L): 1.9 g
Average mass of conventional crude retained ([3]; herder concentration 0.57 g/L): 1.3 g
Average mass of conventional crude retained ([3]; herder concentration 2.9 g/L): 1.6 g
Average mass of conventional crude retained ([3]; herder concentration 10 g/L): 1.8 g

Compound: CCCCCCCCCCCCCCCCCC(=O)N[C@@H](C)C(=O)O [Stearoyl alanine]
Oil slick thickness ([4]; 0.77 mg in 1 L of water (from isopropyl alcohol solution), dilbit 2.27 g, photo after 10 minutes): 2.9 mm

Compound: CCCCCCCCCCCC(=O)N[C@@H](C)C(=O)O [dodecanoyl-L-alanine, reference compound]
Dosing level at which the oil thickened (qualitative evaluation) ([5]; solid suspended in water, 1:4 mL dilbit and water, tested at 2.5, 1.25, 0.83 and 0.63% w/v relative to dilbit): did not thicken the oil at any of the dosing levels tested
Dosing ratio at which a gel formed (qualitative evaluation) ([6]; gellant in 1 mL isopropyl alcohol, 1 mL dilbit and 4 mL water, tested at 2.5, 1.25, 0.83 and 0.63% w/v relative to dilbit): 2.5 % w/v
Gelling ability [7]: gel various hydrophobic organic liquids including petrol

Biodegradability classification [1]: inherently biodegradable
Compound: CCCCCCCC/C=C\CCCCCCCC(=O)NCCC(N)=O [oleic-β-alaninamide]
Gelling of dyed diesel (FIG. 8) [8]: gelled diesel
Time to gelling of the oil phase [9]: less than 1 minute

Compound: CCCCCCCCCCCCCC(=O)N[C@@H](C)C(=O)[O-].[Na+] [sodium tetradecanoylalaninate]
Behaviour of oil added to a pan of water pre-dosed with herder (FIG. 2) ([4]; FA-AA salt pre-dosed into water): contraction of the oil slick

Compound: oleic alaninamide
State of dilbit after PSOG suspended in water (FIG. 3) ([5]; dilbit and water): thickened state
State of dilbit after PSOG delivered as solution in a water-miscible solvent (FIG. 3) ([6]; dilbit and water): gel pellet
